Results: patent publication US7074789B2, “Kinase inhibitors” (Amgen Inc., priority 1999, dated 2006)

Legend:
Format in all cases: biochemical
Flt-1 = molecular target: T1, Flt-1 (Homo sapiens, UniProt P17948); assay: Kinase inhibition assay (33P transfer), Flt-1
T1 construct: Kinases are expressed as either kinase domains or full length constructs; made in house
Summary of the method: (§1)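 Read-out: scintillation counts of 33P moved from ATP onto synthetic peptide polymer coated on the well surface, after washing with 0.5% phosphoric acid. Enzymes were tagged (GST or polyHistidine) and came from bacterial or insect-cell expression. IC50 marks 50% loss of incorporated label.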

Tek = molecular target: T2, Tek (Homo sapiens, UniProt Q02763); assay: Kinase inhibition assay (33P transfer), Tek; settings: read-out: Tek-1
T2 construct: Kinases are expressed as either kinase domains or full length constructs; made in house
Summary of the method: as §1

ErbB4 = molecular target: T3, ErbB4 (Homo sapiens, UniProt Q15303); assay: Kinase inhibition assay (33P transfer), ErbB4; settings: read-out: ErbB4-1
T3 construct: Kinases are expressed as either kinase domains or full length constructs; made in house

c-Met = molecular target: T4, c-Met (Homo sapiens, UniProt P08581); assay: Kinase inhibition assay (33P transfer), c-Met; settings: Table 2, kinase inhibition class; read-out: Met-1
T4 construct: Kinases are expressed as either kinase domains or full length constructs; made in house
Summary of the method: as §1

Fyn = molecular target: T5, Fyn (Homo sapiens, UniProt P06241); assay: Kinase inhibition assay (33P transfer), Fyn; settings: read-out: Fyn-1
T5 construct: Kinases are expressed as either kinase domains or full length constructs; made in house
Summary of the method: as §1

Lyn = molecular target: T6, Lyn (Homo sapiens, UniProt P07948); assay: Kinase inhibition assay (33P transfer), Lyn; settings: Table 6, Lyn-1 kinase inhibition class
T6 construct: Kinases are expressed as either kinase domains or full length constructs; made in house
Summary of the method: as §1

Lck = molecular target: T7, Lck (Homo sapiens, UniProt P06239); assay: Kinase inhibition assay (33P transfer), Lck; settings: Table 3; read-out: Lck-1
T7 construct: Kinases are expressed as either kinase domains or full length constructs; made in house
Summary of the method: (§2)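 Recombinant kinase-domain or full-length fusion proteins (GST or His tag) served as enzyme. Substrate poly(Glu,Tyr) 4:1 or poly(Arg,Ser) 3:1 was bound to the plate; transferred 33P was read by liquid scintillation following acid washing.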

IGFR-1 = molecular target: T8, IGFR-1 (Homo sapiens, UniProt P08069); assay: Kinase inhibition assay (33P transfer), IGFR-1; settings: Table 2, kinase inhibition class
T8 construct: Kinases are expressed as either kinase domains or full length constructs; made in house

AKT = molecular target: T9, AKT (Homo sapiens, UniProt Q9Y243); assay: Kinase inhibition assay (33P transfer), AKT; settings: Table 2, kinase inhibition class; read-out: AKT3-1
T9 construct: Kinases are expressed as either kinase domains or full length constructs; made in house
Summary of the method: as §2

EGFR = molecular target: T10, EGFR (Homo sapiens, UniProt P00533); assay: Kinase inhibition assay (33P transfer), EGFR; settings: Table 2, kinase inhibition class; read-out: EGFR-1
T10 construct: Kinases are expressed as either kinase domains or full length constructs; made in house
Summary of the method: as §1

EPHB4 = molecular target: T11, EPHB4 (Homo sapiens, UniProt P54760); assay: Kinase inhibition assay (33P transfer), EPHB4; settings: read-out: EPHB4-1
T11 construct: Kinases are expressed as either kinase domains or full length constructs; made in house
T11 sequence (P54760 16-987): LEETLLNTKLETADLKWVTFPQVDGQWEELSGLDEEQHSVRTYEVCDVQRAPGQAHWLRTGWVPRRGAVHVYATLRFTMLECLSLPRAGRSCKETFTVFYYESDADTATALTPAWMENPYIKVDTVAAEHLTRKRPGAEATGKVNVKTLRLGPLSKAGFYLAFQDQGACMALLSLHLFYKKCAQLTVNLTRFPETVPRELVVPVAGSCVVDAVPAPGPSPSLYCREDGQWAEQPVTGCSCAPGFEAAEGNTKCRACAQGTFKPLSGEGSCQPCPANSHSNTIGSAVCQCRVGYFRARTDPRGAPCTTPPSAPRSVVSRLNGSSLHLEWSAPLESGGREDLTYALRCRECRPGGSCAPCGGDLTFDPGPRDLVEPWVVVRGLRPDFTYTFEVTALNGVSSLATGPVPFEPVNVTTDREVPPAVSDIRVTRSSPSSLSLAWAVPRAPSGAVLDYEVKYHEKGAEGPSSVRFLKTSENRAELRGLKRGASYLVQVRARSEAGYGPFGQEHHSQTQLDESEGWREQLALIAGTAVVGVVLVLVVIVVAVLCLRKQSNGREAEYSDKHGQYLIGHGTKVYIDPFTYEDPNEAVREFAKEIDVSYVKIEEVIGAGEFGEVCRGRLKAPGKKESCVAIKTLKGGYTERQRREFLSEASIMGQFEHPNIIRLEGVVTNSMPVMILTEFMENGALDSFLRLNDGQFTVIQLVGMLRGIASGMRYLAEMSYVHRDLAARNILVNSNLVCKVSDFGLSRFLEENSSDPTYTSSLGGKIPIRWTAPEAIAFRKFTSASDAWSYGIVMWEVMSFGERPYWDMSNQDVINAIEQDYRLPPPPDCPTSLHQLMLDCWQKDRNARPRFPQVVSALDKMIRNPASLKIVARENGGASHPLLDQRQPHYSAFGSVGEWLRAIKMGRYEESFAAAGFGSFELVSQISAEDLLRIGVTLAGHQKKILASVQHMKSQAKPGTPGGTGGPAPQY

FGFR1 = molecular target: T12, FGFR1 (Homo sapiens, UniProt P11362); assay: Kinase inhibition assay (33P transfer), FGFR1; settings: read-out: FGFR1-1
T12 construct: Kinases are expressed as either kinase domains or full length constructs; made in house

Ret-1 = molecular target: T13, Ret-1 (Homo sapiens, UniProt P07949); assay: Kinase inhibition assay (33P transfer), Ret; settings: Table 6, Ret-1 kinase inhibition class
T13 construct: Kinases are expressed as either kinase domains or full length constructs; made in house

T10 sequence (P00533 25-1210, species assumed): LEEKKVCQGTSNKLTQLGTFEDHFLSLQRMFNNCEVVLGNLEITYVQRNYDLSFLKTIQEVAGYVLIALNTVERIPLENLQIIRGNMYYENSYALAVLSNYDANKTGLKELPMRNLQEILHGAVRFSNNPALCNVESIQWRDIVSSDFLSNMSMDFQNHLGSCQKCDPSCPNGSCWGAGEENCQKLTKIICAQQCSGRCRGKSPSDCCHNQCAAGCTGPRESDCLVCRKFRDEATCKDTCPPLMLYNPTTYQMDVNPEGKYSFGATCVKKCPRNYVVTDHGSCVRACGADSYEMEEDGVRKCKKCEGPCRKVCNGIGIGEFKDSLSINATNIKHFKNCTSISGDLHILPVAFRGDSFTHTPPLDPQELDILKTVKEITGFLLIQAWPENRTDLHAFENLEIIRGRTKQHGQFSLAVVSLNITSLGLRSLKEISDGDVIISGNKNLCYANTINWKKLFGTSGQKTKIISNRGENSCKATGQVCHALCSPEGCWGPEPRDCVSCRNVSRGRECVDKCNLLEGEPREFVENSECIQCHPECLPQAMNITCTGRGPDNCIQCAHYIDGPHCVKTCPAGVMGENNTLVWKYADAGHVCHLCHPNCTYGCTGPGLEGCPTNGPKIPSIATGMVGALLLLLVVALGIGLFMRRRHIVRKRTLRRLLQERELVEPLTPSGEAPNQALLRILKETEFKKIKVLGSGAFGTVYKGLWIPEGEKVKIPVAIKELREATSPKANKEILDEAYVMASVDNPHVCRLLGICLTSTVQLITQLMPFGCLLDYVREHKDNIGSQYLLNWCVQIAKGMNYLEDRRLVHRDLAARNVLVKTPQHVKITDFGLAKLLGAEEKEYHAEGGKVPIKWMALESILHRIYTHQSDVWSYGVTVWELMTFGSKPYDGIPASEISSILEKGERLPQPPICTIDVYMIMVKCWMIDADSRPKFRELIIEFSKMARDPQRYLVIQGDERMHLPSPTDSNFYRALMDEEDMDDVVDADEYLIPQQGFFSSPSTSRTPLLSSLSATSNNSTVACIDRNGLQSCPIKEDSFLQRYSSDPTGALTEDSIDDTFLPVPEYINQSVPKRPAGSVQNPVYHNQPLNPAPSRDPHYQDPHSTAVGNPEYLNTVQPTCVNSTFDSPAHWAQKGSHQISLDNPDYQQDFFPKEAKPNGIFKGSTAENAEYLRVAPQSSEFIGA
T9 sequence (Q9Y243 whole entry, the tested form may be a part): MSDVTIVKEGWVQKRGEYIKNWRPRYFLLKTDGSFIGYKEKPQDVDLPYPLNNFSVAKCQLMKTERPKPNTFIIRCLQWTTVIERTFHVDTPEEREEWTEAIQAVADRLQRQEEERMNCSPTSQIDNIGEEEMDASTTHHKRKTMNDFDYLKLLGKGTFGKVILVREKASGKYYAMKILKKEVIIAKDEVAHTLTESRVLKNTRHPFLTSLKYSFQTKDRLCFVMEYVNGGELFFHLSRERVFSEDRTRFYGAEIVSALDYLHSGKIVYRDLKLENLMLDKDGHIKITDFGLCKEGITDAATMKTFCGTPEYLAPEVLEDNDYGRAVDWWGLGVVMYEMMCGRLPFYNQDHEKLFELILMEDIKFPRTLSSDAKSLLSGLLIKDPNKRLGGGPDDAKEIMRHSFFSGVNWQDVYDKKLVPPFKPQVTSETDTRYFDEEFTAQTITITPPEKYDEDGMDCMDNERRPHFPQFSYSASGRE
T12 sequence (P11362 22-822, species assumed): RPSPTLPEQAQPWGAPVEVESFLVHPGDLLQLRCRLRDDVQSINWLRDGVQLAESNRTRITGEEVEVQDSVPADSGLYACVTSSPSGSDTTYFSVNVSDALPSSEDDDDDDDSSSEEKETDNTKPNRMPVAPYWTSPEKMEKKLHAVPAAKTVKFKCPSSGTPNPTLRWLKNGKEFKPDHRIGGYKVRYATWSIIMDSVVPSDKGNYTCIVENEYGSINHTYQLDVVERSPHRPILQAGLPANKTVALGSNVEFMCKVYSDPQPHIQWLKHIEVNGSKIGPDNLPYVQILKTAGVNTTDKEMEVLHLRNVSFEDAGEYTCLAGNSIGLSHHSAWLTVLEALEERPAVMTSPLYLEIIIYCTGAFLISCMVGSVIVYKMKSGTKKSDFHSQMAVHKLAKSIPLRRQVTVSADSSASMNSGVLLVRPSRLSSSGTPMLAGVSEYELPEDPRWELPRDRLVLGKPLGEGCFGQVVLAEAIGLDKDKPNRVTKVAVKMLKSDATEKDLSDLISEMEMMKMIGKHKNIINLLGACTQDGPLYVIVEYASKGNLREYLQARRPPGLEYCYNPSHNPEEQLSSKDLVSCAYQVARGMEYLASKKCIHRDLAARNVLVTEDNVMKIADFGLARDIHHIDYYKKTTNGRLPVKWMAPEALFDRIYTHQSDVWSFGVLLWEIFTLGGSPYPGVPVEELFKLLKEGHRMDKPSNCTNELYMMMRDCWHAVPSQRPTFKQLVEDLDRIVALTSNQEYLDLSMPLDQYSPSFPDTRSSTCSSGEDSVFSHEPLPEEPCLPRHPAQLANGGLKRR
T1 sequence (P17948 27-1338, species assumed): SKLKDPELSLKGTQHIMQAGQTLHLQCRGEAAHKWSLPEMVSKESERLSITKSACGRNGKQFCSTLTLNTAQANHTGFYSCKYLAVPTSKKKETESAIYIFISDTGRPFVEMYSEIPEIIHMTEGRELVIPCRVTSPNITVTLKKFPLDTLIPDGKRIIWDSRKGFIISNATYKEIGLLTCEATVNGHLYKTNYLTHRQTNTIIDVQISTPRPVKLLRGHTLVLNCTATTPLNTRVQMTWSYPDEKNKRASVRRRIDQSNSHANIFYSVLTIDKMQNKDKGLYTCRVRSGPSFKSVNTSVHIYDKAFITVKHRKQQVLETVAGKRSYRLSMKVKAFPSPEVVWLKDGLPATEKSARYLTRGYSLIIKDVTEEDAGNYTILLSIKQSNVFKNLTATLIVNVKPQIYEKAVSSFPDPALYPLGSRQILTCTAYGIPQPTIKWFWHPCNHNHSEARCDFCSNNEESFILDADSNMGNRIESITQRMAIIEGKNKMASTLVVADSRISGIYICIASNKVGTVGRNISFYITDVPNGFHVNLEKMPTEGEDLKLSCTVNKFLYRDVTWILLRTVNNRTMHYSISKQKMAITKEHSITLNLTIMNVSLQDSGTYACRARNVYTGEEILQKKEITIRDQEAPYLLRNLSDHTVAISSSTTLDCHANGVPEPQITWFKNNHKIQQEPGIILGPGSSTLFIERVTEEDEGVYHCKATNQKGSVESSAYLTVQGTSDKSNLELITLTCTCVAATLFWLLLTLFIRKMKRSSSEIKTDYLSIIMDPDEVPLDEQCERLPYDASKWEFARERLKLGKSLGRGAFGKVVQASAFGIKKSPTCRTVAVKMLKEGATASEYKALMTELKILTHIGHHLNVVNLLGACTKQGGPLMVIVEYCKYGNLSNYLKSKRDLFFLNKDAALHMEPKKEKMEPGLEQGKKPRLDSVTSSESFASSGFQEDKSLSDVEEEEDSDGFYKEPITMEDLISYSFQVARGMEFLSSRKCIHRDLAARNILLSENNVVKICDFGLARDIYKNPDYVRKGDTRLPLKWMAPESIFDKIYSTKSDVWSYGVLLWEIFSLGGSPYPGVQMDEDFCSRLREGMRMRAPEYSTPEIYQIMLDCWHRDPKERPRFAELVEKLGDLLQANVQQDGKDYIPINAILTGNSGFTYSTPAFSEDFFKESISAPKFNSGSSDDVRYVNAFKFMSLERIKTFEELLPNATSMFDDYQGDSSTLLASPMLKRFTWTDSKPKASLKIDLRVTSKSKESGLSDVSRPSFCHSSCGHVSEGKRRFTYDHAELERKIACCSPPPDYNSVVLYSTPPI
T6 sequence (P07948 whole entry, species assumed, the tested form may be a part): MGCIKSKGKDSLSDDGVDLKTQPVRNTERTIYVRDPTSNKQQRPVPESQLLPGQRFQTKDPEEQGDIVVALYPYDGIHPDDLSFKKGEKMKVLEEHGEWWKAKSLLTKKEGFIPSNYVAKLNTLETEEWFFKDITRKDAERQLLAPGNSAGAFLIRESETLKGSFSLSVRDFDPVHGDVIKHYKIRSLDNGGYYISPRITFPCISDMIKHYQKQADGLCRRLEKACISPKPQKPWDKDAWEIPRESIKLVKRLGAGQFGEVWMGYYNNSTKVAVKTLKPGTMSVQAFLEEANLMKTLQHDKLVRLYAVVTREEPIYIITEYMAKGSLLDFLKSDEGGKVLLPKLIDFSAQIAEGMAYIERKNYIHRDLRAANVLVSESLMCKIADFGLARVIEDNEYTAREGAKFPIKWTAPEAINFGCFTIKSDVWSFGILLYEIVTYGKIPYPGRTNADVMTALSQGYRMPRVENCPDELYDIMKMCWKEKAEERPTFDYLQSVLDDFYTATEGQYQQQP
T5 sequence (P06241 whole entry, species assumed, the tested form may be a part): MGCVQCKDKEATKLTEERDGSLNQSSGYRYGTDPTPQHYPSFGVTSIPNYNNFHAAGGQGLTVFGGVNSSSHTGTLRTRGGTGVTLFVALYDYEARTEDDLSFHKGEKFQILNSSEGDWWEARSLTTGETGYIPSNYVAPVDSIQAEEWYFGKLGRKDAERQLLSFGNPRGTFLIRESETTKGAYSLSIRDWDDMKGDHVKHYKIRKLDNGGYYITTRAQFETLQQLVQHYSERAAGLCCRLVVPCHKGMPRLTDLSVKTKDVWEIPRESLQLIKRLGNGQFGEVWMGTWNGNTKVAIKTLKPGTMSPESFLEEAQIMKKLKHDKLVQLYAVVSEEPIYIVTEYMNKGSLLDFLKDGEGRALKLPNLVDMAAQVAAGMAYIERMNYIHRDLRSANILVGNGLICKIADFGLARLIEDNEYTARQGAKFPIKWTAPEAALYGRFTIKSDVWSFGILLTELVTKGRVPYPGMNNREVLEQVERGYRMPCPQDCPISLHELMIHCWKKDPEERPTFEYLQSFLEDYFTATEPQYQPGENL

Structure (SMILES) | IC50 (Flt-1) [µM] | IC50 (Tek) [µM] | IC50 (ErbB4) [µM] | IC50 (c-Met) [µM] | IC50 (Fyn) [µM] | IC50 (Lyn) [µM] | IC50 (Lck) [µM] | IC50 (IGFR-1) [µM] | IC50 (AKT) [µM] | IC50 (EGFR) [µM] | IC50 (EPHB4) [µM] | IC50 (FGFR1) [µM] | IC50 (Ret-1) [µM]
COc1cc(Nc2ncnc(-n3ccc4ccc(Cl)cc43)n2)cc(OC)c1OC [Compound 237] | 8.5 to 10.9 | > 10.9 | > 10.9 | 5.83 to 8.5 | > 10.9 | 5.83 to 8.5 | 0.971 to 5.83 | < 0.971 | > 10.9 | 8.5 to 10.9 | 8.5 to 10.9 | 5.83 to 8.5 | 5.83 to 8.5
COc1cc(Nc2ncnc(-n3cnc4ccccc43)n2)cc(OC)c1OC [Compound 186] | 1.06 to 6.34 | 9.25 to 11.9 | > 11.9 | 1.06 to 6.34 | > 11.9 | 9.25 to 11.9 | 1.06 to 6.34 | 1.06 to 6.34 | > 11.9 | 9.25 to 11.9 | > 11.9 | > 11.9 | > 11.9
COc1cc(Nc2ncnc(-n3c(=O)[nH]c4ccccc43)n2)cc(OC)c1OC [Compound 325] | < 1.01 | > 11.4 | 1.01 to 6.09 | > 11.4 | 6.09 to 8.87 | 8.87 to 11.4 | > 11.4 | > 11.4 | > 11.4 | 8.87 to 11.4 | > 11.4 | > 11.4 | > 11.4
COc1cc(Nc2ncnc(Nc3nnc(-c4ccccc4)[nH]3)n2)cc(OC)c1OC [Compound 311] | > 10.7 | > 10.7 | > 10.7 | 0.951 to 5.71 | > 10.7 | > 10.7 | > 10.7 | > 10.7 | > 10.7 | > 10.7 | > 10.7 | > 10.7 | > 10.7
COc1cc2ccn(-c3ncnc(Nc4cc(OC)c(OC)c(OC)c4)n3)c2cc1OC [Compound 239] | > 10.3 | > 10.3 | > 10.3 | > 10.3 | > 10.3 | > 10.3 | > 10.3 | > 10.3 | > 10.3 | 8 to 10.3 | > 10.3 | > 10.3 | > 10.3
COC(=O)c1sccc1Nc1ncnc(Nc2cc(OC)c(OC)c(OC)c2)n1 [Compound 315] | > 10.8 | > 10.8 | 0.958 to 5.75 | 8.38 to 10.8 | > 10.8 | > 10.8 | 8.38 to 10.8 | > 10.8 | > 10.8 | > 10.8 | > 10.8 | > 10.8 | > 10.8
COCCOc1ccc(Nc2ncnc(-n3c(N)nc4ccccc43)n2)cc1OCCOC [Compound 302] | > 9.97 | > 9.97 | > 9.97 | > 9.97 | > 9.97 | > 9.97 | > 9.97 | < 0.886 | > 9.97 | > 9.97 | > 9.97 | 0.886 to 5.32 | > 9.97
COc1cc(Nc2ncnc(Nc3ccc(C)cc3)n2)cc(OC)c1OC [Compound 930] | 6.53 to 9.53 | > 12.2 | 1.09 to 6.53 | 9.53 to 12.2 | < 1.09 | < 1.09 | 1.09 to 6.53 | 1.09 to 6.53 | > 12.2 | < 1.09 | 6.53 to 9.53 | 6.53 to 9.53 | 1.09 to 6.53
